Data published in patent US11999782B2, “Therapeutic agents for the treatment of diseases associated with undesired cell proliferation” (Fundació Privada Institutció Catalana de Recerca I Estudis …, priority 2009, dated 2024).

How the values were obtained:
GBM neurospheres = test: Differentiation of GBM neurospheres (neuroprogenitor markers, adhesion); assay type: cell-based, human; conditions: 7 days without EGF or FGF; for adhesion to the culture plate / morphology versus control cells: GBM neurospheres, poly-L-lysine
Method: FIG. 7. TGFβ and LIF prevent the differentiation of GBM neurospheres. (A) Immunocytochemistry of the indicated proteins was performed in neurospheres derived from GBM1 treated with 100 pM TGFβ1 or 20 ng/ml LIF for 7 days in the absence of growth factors and the last 3 days on slides coated with poly-L-lysine. (B) The mRNA levels of Musashi-1 (Msi-1), Sox2 and Nestin were determined in GBM1 neurospheres after 7 days of the indicated treatments without growth factors. The RNA levels of 18S were used as an internal normalization control.
The immunocytochemistry of neurospheres and differentiated neurospheres was performed as described (Geshwind et al., 2001) using the following antibodies: anti-nestin (Chemicon), anti-GFAP (Dako), anti-TuJ1 (Chemicon), anti-04 (Chemicon), anti-Sox2 (Chemicon), anti-α-tubulin (Sigma). The nuclei were counterstained with 4′,6-diamino-2-phenylindole (DAPI).
qRT-PCR was performed using Taqman probes from Applied Biosystems, according to the manufacturer's recommendations. The reactions were carried out in a ABI 7000 sequence detector (Perkin Elmer) and the results were expressed as the fold change calculated by means of the DDCt method relative to the control sample or the first quantified sample. The ribosomal unit of 18S or β-actin were used as internal normalization controls.
The neurospheres derived from GBMs grown in the absence of growth factors and seeded in poly-L-lysine-coated plates tend to differentiate losing the expression of the neuroprogenitor markers Musashi-1, Sox2 and Nestin, and being adhered to the culture plate. It was decided to evaluate the effect of TGFβ and LIF on this differentiation process. The neurospheres were cultured in the presence of TGFβ or LIF without EGF or FGF for 7 days and subsequently processed for immunohistochemical staining and qRT-PCR assays for determining the levels of the neuroprogenitor markers Musashi-1, Sox2 and Nestin.

[1] = tested on: LIF expression in mouse neuroprogenitors; test: LIF induction in mouse neuroprogenitors; assay type: cell-based; conditions: from mouse embryos or the subventricular area of adult mice; data not shown
LIF protein secretion = test: Secreted LIF protein by ELISA in GBM1 neurospheres; assay type: cell-based, human; conditions: 48 hours, 100 pM TGFβ1
Method: FIG. 3. TGFβ induces the expression of LIF in PCTC and GBM neurospheres. (A) PCTC cells of the 11 samples of the indicated GEM (GBM1-11) were treated with 100 pM TGFβ1 for 3 hours in medium without serum or left untreated, and the expression levels of LIF were determined by means of qRT-PCR. The g-actin was determined as an internal normalization control. (B) GBM neurosphere cells were treated as in A and the expression levels of LIF were determined by means of qRT-PCR as in A. (C) GBM neurospheres were incubated with 100 pM TGFβ1 and/or 2 μM TβRI inhibitor for 3 hours in medium without serum and the mRNA levels of LIF were determined by means of qRT-PCR as in A. (D) GBM1 neurospheres were incubated with 100 pM TGFβ1, TGFβ2 and TGFβ3 for 3 hours in medium without serum and the mRNA levels of LIF were determined by means of qRT-PCR as in A. (E) The levels of LIF protein secreted were determined by means of ELISA in GBM1 neurospheres after 48 hours of treatment with 100 pM TGFβ1.
For the quantitative determination of the levels of LIF protein secreted to the medium, the human LIF ELISA kit (R&D Systems) was used, following the manufacturer's specifications. […]
It was decided to investigate the molecular mechanisms responsible for the effect of TGFβ on GICs. […] A panel of PCTCs derived from 11 different human GBMs was treated with TGFβ for 3 hours and the levels of LIF mRNA were determined.

Substance | expression of Musashi-1, Sox2 and Nestin (immunocytochemistry, qRT-PCR) (GBM neurospheres; GBM1 neurospheres, 100 pM TGFβ1 or 20 ng/ml LIF) | adhesion to the culture plate / morphology versus control cells (GBM neurospheres) | induction of LIF in mouse neuroprogenitors [1] | secretion of the LIF protein (ELISA, conditioned neurosphere medium) (LIF protein secretion)
LIF: recombinant leukemia inhibitory factor, an IL-6 type cytokine (Chemicon) | maintained the expression | adhered less to the culture plate |  | 
TGFβ: TGFβ1 (R&D Systems), used at 100 pM according to the figure legends |  | adhered less to the culture plate | did not induce LIF | increase in the secretion of the LIF protein
